The record followed here is patent US12144850B2, “Methods and compositions for car T cell therapy” (PURDUE RESEARCH FOUNDATION, priority 2016, dated 2024).

The test system of one data set is LNCaP (PSMA+) cells. Nature of the data set: Cytotoxicity assay of CAR T cells in vitro (LDH release), LNCaP. Type of data set: cell-based. As to conditions: LNCaP (PSMA+) model, E:T 10:1, 100 nM conjugate; FIG. 3B. Here is the method: (§1) In order to test cytotoxicity of CAR T cells with desired FITC-ligands, a standard lactate dehydrogenase (LDH) release assay was performed using a Pierce™ LDH cytotoxicity assay kit from ThermoFisher Scientific. To prepare samples for the LDH assay, cancer cells were seeded at a density of 10^4 cells/100 μL of media in each well of a 96 well plate and grown overnight. CAR T cells were prepared the next day at various numbers to have different effector (CAR T cell):target cell (cancer cell) ratios (e.g. E:T=20:1, 10:1, 5:1 and 1:1). FITC-ligands at various concentrations were introduced into each well and co-cultured for 6-24 hours. After co-incubation, the plate containing CAR T cells and cancer cells was centrifuged at 350×g at room temperature for 10 min to remove cell debris or remaining cells. 50 μL of the supernatants of each sample were then transferred into a new 96 well plate. 50 μL of the prepared LDH reaction mixture was added to the transferred 50 μL of each sample and incubated at room temperature for 30 min. 50 μL of stop solution was added and the absorbance of each sample was measured at 490 nm and 680 nm. The percent of cytotoxicity was calculated for each sample by using the equation below: % Cytotoxicity=(Experimental value−effector cells spontaneous−target cells spontaneous)/(Target cell maximum control−target cell spontaneous control)×100
For orientation: Release of lactate dehydrogenase indicates damage to the cell membrane.

A further data set relates to KB (FR+) cells. Nature of the data set: Cytotoxicity assay of CAR T cells in vitro (LDH release), KB. It counts as cell-based. As to conditions: KB (FR+) model, 100 nM conjugate; FIG. 3D. Here is the method:
as §1

The next data set concerns HEK(NK1R+). Nature of the data set: Two tumors on separate flanks of the same mouse, HEK tumor. It counts as in vivo, mice. An excerpt: (§2) In order to study whether same anti-FITC CAR T cell can eradicate mixture of heterogeneous cancer cells with cocktail of FITC-ligands, immunodeficient NSG mice (Jackson laboratory) were utilized for the in vivo study. Two different cancer cell lines (e.g. MDA-MB-231(FR+) and HEK(NK1R+)) were implanted into separate flanks on the same mouse. Then, anti-FITC CAR T cell (10^7 cells) was introduced by intravenous injection when tumor volumes reached about 50-100 mm^3. In addition, either a mixture of FITC-ligands (i.e. FITC-PEG12-Folate (500 nmole/kg) and FITC-PEG11-NK1R (500 nmole/kg)), single FITC-PEG11-NK-1R (500 nmole/kg) or PBS was introduced every other day by intravenous injection. The anti-tumor efficacy of CAR T cell with FITC-ligands was analyzed by measuring tumor volume at every other day.

The next data set concerns MDA-MB-231 (FR+) cells. Nature of the data set: Anti-tumor efficacy of CAR T cells in vivo, MDA-MB-231 (FR+) xenograft. The arrangement: species or system mice. As to conditions: during treatment, FIG. 7B. The protocol: (§3) Immunodeficient NSG mice (Jackson Laboratory) were used to identify the efficacy of CAR T cell anti-tumor activity in vivo. Each tumor-specific antigen expressing cancer cell line was subcutaneously injected into the shoulder of NSG mice to establish solid tumor xenografts. When tumor volume of around 50-100 mm^3 was reached, CAR T cells were introduced into mice bearing tumors and desired FITC-ligands were also introduced (i.v.) every other day. Control mice were administered PBS instead of FITC-ligands. Tumor volume and cytokine levels in the blood (IL2, IL6, IL10, IFNγ, and TNFα) were measured. General toxicity of the therapy was monitored by measuring weight loss. At the end of each treatment, mouse blood was collected to test for anemia, number of white blood cells and CAR T cell proliferation. Mouse organs were also evaluated.

For data set [1], the system named is HEK293 (NK1R+) cells. Nature of the data set: Anti-tumor efficacy of CAR T cells in vivo, HEK293 (NK1R+) xenograft. Details: species or system mice. Here is the method:
as §3

The next data set deals with MDA-MB-231(FR+). Nature of the data set: Two tumors on separate flanks of the same mouse, MDA-MB-231 tumor. Type of data set: in vivo, mice.
Text: as §2

In data set [2] the test system is HEK293 (NK1R+) cells. Nature of the data set: Cytotoxicity assay of CAR T cells in vitro (LDH release), HEK293. It counts as cell-based. As to conditions: HEK293 (NK1R+) model, E:T 10:1, 100 nM conjugate; FIG. 3C. The protocol: as §1
The mark [3] stands for this setting: anti-FITC CAR T cell (10^7 cells) + both FITC-PEG11-NK1R and FITC-PEG12-Folate, 500 nmole/kg each, i.v. every other day, FIG. 19C.
The mark [4] stands for this setting: anti-FITC CAR T cell (10^7 cells) + only FITC-PEG11-NK1R 500 nmole/kg i.v. every other day, FIG. 19B.

`O=C(O)CC[C@H](NC(=O)N[C@@H](CCC(=O)NCCCCCCCC(=O)N[C@@H](Cc1ccccc1)C(=O)N[C@@H](Cc1ccccc1)C(=O)NCCNC(=S)Nc1ccc(-c2c3ccc(=O)cc-3oc3cc(O)ccc23)c(C(=O)O)c1)C(=O)O)C(=O)O` [FITC-DUPA]: the “cytotoxicity of CAR T cells (activation)” value with LNCaP (PSMA+) cells was “greater activation than using FITC-Folate or in the absence of a conjugate”. In addition, in the data set on KB (FR+) cells, the “CAR T cell cytotoxicity to tumor cells as a function of E:T ratio” value was “a function of the E:T ratio”.
As for `O=C(CN1CCC[C@H](OCc2cc(C(F)(F)F)cc(C(F)(F)F)c2)[C@@H]1c1ccccc1)NCCOCCOCCOCCOCCOCCOCCOCCOCCOCCOCCOCCNC(=S)Nc1ccc(-c2c3ccc(=O)cc-3oc3cc(O)ccc23)c(C(=O)O)c1` [FITC-PEG11-NK1], the “HEK (NK1R) tumor volume” value is “eliminated” in the data set with HEK(NK1R+) (setting [3]) and “eradicated” with HEK(NK1R+) (setting [4]). The body weight entry in the data set with MDA-MB-231 (FR+) cells was “unchanged during treatment”; in the data set on HEK293 (NK1R+) cells [1] (NSG mice, CAR T cells + conjugate, FIG. 5B) it was “unchanged relative to the control mouse”. In the data set with HEK293 (NK1R+) cells [1] (HEK-NK1R model, 500 nmoles/kg, FIG. 9), the “blood indices (cytokine storm)” value is listed as “a cytokine storm had not occurred”. Also, the tumor size result in the data set on HEK293 (NK1R+) cells [1] (NSG mice, CAR T cells + conjugate 500 nmol/kg i.v. every other day, FIG. 5A) is reported as “decreased”. Also, the “harvested organs, indications of cytokine release syndrome” value with HEK293 (NK1R+) cells [1] (after two weeks of therapy, versus control group, FIGS. 6A-B) is listed as “appeared normal in size with no indications of cytokine release syndrome”. Moreover, the “percentage of CAR T cells in human T cells” value with HEK293 (NK1R+) cells [1] (post CAR T cell injection along with conjugate, FIG. 5C) is on record as “increased”. Besides, the values for the MDA-MB-231 tumor volume result in the data set with MDA-MB-231(FR+) (setting [3]) and in the data set on MDA-MB-231(FR+) (setting [4]) were “eliminated” and “continued growing”, respectively. The “cytotoxicity of CAR T cells (activation)” value in the data set on HEK293 (NK1R+) cells [2] is listed as “greater than activation using FITC-Folate or in the absence of a conjugate”.
